Measurements taken from patent US10793563B2, “GCN2 inhibitors and uses thereof” (Merck Patent GmbH, priority 2018, dated 2020).

Assays:
[1] = biological target: intracellular GCN2 (phosphorylation of the GCN2 substrate eIF2α) (Homo sapiens (Human), UniProt Q9P2K8); assay: GCN2 Cellular Inhibition Assay (AlphaScreen SureFire P-eIF2α Ser51, borrelidin-treated U2OS cells); assay type: cell-based; conditions: 10 μM borrelidin, 1 h, phosphorylated eIF2α Ser51, read-out: GCN2 Biomarker (IC50)
Protocol: Compounds can be screened for their ability to inhibit intracellular GCN2 using an AlphaScreen assay (Perkin Elmer) to detect phosphorylation of the GCN2 substrate eIF2α in borrelidin-treated cells. U2OS cells are plated at 5,000 cells per well in 384-well white polystyrene plates (Corning 3570) in McCoy's 5A media (GIBCO 26600-023) supplemented with 10% foetal bovine serum (SAFC 12103C), Penicillin/Streptomycin solution diluted 1:100 (Sigma P0781), and 2 mM L-glutamine (Sigma G7513), and allowed to adhere overnight at 37° C. in 5% CO2. Compounds are then added to the cell media from a final concentration of 40 μM in 4-fold serial dilutions. Borrelidin (FluoroChem M01440) is immediately added to the wells to a final concentration of 10 μM and the cells are incubated for 1 h at 37° C. in 5% CO2. After 1 h of treatment with borrelidin, the media is removed, and the cells are lysed with lysis buffer (TGR BioSceinces TGRLB) at ambient temperature.
An AlphaScreen SureFire P-eIF2α (Ser51) assay kit (Perkin Elmer TGREIF2S) was used to measure levels of eIF2α phosphorylated on Serine 51. Anti-phosphorylated eIF2α Ser51 antibody-linked acceptor beads (TGR BioScience 6760617) are added to the cell homogenate (diluted 1:250 into a mixture of activation (TGR BioScience TGRAB) and reaction buffer (TGR BioScience TGREIF2S) prepared immediately before use). The plate is then incubated for 2 h at ambient temperature in the dark. Anti-eIF2α antibody-linked donor beads (TGR BioScience 6760617) were then added (diluted 1:100 in dilution buffer (TGR BioScience TGRDB) prepared immediately before use). The plate is then incubated overnight at ambient temperature in the dark.
Plates are analyzed on an Alpha Technology-compatible PHERAstar FS plate reader (BMG Labtech Version 1.14) to quantify phosphorylated eIF2α Ser51 levels. The percentage inhibition of phosphorylated eIF2α is calculated by comparison to control wells stimulated with borrelidin alone.

GCN2 kinase = GCN2 kinase (Homo sapiens (Human), UniProt Q9P2K8); assay: GCN2 Enzyme Inhibition Assay (Transcreener ADP2 fluorescence polarization); assay type: biochemical; conditions: 280 μM ATP, 200 μM (RS)7 peptide, 4 nM GCN2, 25° C.; for Ki: Ki(app)
GCN2 kinase, sequence (Q9P2K8 whole entry): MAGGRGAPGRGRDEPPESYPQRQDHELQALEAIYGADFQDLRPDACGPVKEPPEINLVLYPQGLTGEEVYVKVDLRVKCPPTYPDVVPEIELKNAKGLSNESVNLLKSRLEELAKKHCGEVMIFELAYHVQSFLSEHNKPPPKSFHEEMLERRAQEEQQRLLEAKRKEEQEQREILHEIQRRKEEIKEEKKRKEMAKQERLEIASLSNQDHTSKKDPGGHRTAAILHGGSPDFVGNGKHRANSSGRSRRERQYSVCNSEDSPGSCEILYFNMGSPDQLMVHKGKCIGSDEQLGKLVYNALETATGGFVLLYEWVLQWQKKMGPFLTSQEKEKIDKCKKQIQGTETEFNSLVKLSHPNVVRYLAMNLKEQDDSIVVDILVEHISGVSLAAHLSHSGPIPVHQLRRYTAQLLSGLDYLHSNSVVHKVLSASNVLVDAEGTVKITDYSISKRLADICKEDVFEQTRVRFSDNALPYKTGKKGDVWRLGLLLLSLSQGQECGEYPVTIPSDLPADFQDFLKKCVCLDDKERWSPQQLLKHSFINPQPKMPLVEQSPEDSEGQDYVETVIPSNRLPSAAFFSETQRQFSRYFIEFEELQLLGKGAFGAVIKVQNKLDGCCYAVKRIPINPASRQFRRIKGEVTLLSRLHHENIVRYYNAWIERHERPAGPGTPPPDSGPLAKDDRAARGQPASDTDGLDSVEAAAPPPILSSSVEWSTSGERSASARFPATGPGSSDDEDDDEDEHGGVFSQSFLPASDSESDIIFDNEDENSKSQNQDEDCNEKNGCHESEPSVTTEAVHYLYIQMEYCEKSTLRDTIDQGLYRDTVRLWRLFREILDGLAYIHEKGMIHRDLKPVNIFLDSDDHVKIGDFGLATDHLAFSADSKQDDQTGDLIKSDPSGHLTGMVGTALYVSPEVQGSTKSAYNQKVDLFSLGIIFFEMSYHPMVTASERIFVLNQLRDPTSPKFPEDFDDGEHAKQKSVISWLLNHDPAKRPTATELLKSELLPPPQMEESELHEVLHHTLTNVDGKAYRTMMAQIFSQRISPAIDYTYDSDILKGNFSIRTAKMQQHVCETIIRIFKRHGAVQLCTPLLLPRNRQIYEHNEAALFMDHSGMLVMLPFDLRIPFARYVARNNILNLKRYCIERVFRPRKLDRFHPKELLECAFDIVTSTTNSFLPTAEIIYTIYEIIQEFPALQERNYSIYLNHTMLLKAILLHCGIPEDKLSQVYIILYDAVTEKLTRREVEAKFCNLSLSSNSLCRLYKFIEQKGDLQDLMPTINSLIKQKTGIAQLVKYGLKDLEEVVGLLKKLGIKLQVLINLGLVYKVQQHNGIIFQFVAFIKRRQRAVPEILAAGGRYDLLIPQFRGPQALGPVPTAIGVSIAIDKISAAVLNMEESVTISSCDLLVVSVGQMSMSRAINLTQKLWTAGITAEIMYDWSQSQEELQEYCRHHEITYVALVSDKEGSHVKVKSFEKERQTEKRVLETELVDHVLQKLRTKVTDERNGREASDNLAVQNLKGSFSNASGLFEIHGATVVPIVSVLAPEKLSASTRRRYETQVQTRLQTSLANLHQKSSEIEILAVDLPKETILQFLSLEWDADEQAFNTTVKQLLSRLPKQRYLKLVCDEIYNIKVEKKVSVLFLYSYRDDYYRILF
Summary of the method: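 At 25 °C, GCN2 kinase (typical final concentration 4 nM) and (RS)7 peptide in Tris-HCl pH 7.5 buffer with MgCl2, NaCl and DTT were preincubated with compound for 10 min, then ATP was added for a 1 h reaction. ADP was read by FP with antibody/Alexa633 tracer. Non-linear tight-binding analysis gave IC50 and apparent Ki.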

intracellular GCN2 (phosphorylation of the GCN2 substrate eIF2α), sequence (Q9P2K8 whole entry): as above

Row | IC50 [1] [nM] | Ki (GCN2 kinase) [nM] | IC50 (GCN2 kinase) [nM] | Compound
1 | > 5000 | 100 to 1000 | – | Clc1ccc2ncc(-c3nccc(N4CC5CC5(c5ccccc5)C4)n3)n2c1 (stereo not shown) [I-84, 6-Chloro-3-[4-(1-phenyl-3-aza-bicyclo[3.1.0]hex-3-yl)-pyrimidin-2-yl]-imidazo[1,2-a]pyridine]
2 | 500 to 5000 | – | 100 to 1000 | C[C@@H]1[C@@H](c2cn[nH]c2)N(C2COC2)CCN1c1ccnc(-c2cnc3ccc(C(F)(F)F)cn23)n1 [I-363, 3-(4-((2R,3R)-2-methyl-4-(oxetan-3-yl)-3-(1H-pyrazol-4-yl)piperazin-1-yl)pyrimidin-2-yl)-6-(trifluoromethyl)imidazo[1,2-a]pyridine]
3 | < 500 | – | < 10 | CC1(CN2CCN(c3ccnc(-c4cnc5ccc(C(F)(F)F)cn45)n3)CC2c2cn[nH]c2)CC1 (stereo not shown) [I-510, 3-(4-(4-((1-methylcyclopropyl)methyl)-3-(1H-pyrazol-4-yl)piperazin-1-yl)pyrimidin-2-yl)-6-(trifluoromethyl)imidazo[1,2-a]pyridine]
4 | < 500 | 100 to 1000 | – | Fc1cc2ncc(-c3nccc(N4CCOC(c5ccccn5)C4)n3)n2cc1Cl (stereo not shown) [I-88, 6-Chloro-7-fluoro-3-[4-(2-pyridin-2-yl-morpholin-4-yl)-pyrimidin-2-yl]-imidazo[1,2-a]pyridine]
5 | < 500 | < 10 | – | Clc1ccc2ncc(-c3nccc(N4CCC(c5cn[nH]c5)C4)n3)n2c1 (stereo not shown) [I-27, 6-Chloro-3-[4-[3-(1H-pyrazol-4-yl)pyrrolidin-1-yl]pyrimidin-2-yl]imidazo[1,2-a]pyridine]
6 | 500 to 5000 | < 10 | – | C[C@H]1CN(c2nccc(-c3cnc4ccc(C(F)F)cn34)n2)C[C@@H](CNS(C)(=O)=O)C1(F)F (stereo in doubt) [I-41, N-[[-1-[4-[6-(Difluoromethyl)imidazo[1,2-a]pyridin-3-yl]pyrimidin-2-yl]-4,4-difluoro-5-methyl-3-piperidyl]methyl]methanesulfonamide]
7 | 500 to 5000 | – | 10 to 100 | O=C(c1cn[nH]n1)N1CCN(c2ccnc(-c3cnc4ccc(C(F)(F)F)cn34)n2)CC1c1cn[nH]c1 (stereo not shown) [I-442, (2-(1H-pyrazol-4-yl)-4-(2-(6-(trifluoromethyl)imidazo[1,2-a]pyridin-3-yl)pyrimidin-4-yl)piperazin-1-yl)(2H-1,2,3-triazol-4-yl)methanone]
8 | < 500 | – | 10 to 100 | C[C@@H]1CN(c2ccnc(-c3cnc4ccc(Cl)cn34)n2)C[C@@H](C(N)=O)O1 [I-177, (2S,6R)-4-(2-(6-chloroimidazo[1,2-a]pyridin-3-yl)pyrimidin-4-yl)-6-methylmorpholine-2-carboxamide]
9 | 500 to 5000 | < 10 | – | CS(=O)(=O)NCC1CCN(c2ccnc(-c3cnc4cc(F)c(Br)cn34)n2)C1 (stereo not shown) [I-25, N-[[1-[2-(6-Bromo-7-fluoro-imidazo[1,2-a]pyridin-3-yl)pyrimidin-4-yl]pyrrolidin-3-yl]methyl]methanesulfonamide]
10 | 500 to 5000 | – | 10 to 100 | CS(=O)(=O)N1CC2(CN(c3ccnc(-c4cnc5ccc(C(F)(F)F)cn45)n3)CCO2)C1 [I-447, 2-(methylsulfonyl)-8-(2-(6-(trifluoromethyl)imidazo[1,2-a]pyridin-3-yl)pyrimidin-4-yl)-5-oxa-2,8-diazaspiro[3.5]nonane]
11 | < 500 | – | – | C[C@@H]1CN(c2nccc(-c3cnc4ccc(C(F)(F)F)cn34)n2)C[C@H](c2cn[nH]c2)O1 (relative stereo) [I-117, cis-2-Methyl-6-(1H-pyrazol-4-yl)-4-{4-[6-(trifluoromethyl)imidazo[1,2-a]pyridin-3-yl]pyrimidin-2-yl}morpholine]
12 | < 500 | – | – | Cc1n[nH]cc1[C@H]1CN(c2ccnc(-c3cnc4ccc(C(F)(F)F)cn34)n2)C[C@@H](C)O1 [I-120]

Second part, the compound before the results:

Row | Compound | IC50 [1] [nM] | Ki (GCN2 kinase) [nM] | IC50 (GCN2 kinase) [nM]
13 | C[C@@H](NS(C)(=O)=O)[C@@H]1[C@H](C)N(c2ccnc(-c3cnc4ccc(C(F)(F)F)cn34)n2)CCN1C1CC1 [I-506, N—((R)-1-((2 S,3 S)-1-cyclopropyl-3-methyl-4-(2-(6-(trifluoromethyl)imidazo[1,2-a]pyridin-3-yl)pyrimidin-4-yl)piperazin-2-yl)ethyl)methanesulfonamide] | 500 to 5000 | – | 10 to 100
14 | OCC1(c2ccccc2)CCCN(c2ccnc(-c3cnc4cc(F)c(Cl)cn34)n2)C1 (stereo not shown) [I-85, {1-[2-(6-Chloro-7-fluoro-imidazo[1,2-a]pyridin-3-yl)-pyrimidin-4-yl]-3-phenyl-piperidin-3-yl}-methanol] | > 5000 | 100 to 1000 | –
15 | O=C(c1c[nH]cn1)N1CCN(c2ccnc(-c3cnc4ccc(C(F)(F)F)cn34)n2)CC1c1cn[nH]c1 (stereo not shown) [I-445, (2-(1H-pyrazol-4-yl)-4-(2-(6-(trifluoromethyl)imidazo[1,2-a]pyridin-3-yl)pyrimidin-4-yl)piperazin-1-yl)(1H-imidazol-4-yl)methanone] | 500 to 5000 | – | 10 to 100
16 | C[C@@H]1CN(c2nccc(-c3cnc4cc(F)c(Cl)cn34)n2)C[C@H](c2cn[nH]c2)O1 [I-273, (2R,6S)-4-(4-(6-chloro-7-fluoroimidazo[1,2-a]pyridin-3-yl)pyrimidin-2-yl)-2-methyl-6-(1H-pyrazol-4-yl)morpholine] | < 500 | – | < 10
17 | O=C(Nc1ccncc1)[C@H]1CCCN(c2ccnc(-c3cnc4cc(F)c(Cl)cn34)n2)C1 [I-86, (S)-1-[2-(6-Chloro-7-fluoro-imidazo[1,2-a]pyridine-3-yl)-pyrimidin-4-yl]-piperidine-3-carboxylic acid pyridine-4-ylamide] | 500 to 5000 | 10 to 100 | –
18 | C[C@@H]1CN(c2ccnc(-c3cnc4ccc(C(F)(F)F)cn34)n2)C[C@H](C)N1C(=O)CC1CCOCC1 [I-464, 1-(cis-2,6-dimethyl-4-(2-(6-(trifluoromethyl)imidazo[1,2-a]pyridin-3-yl)pyrimidin-4-yl)piperazin-1-yl)-2-(tetrahydro-2H-pyran-4-yl)ethan-1-one] | 500 to 5000 | – | 100 to 1000
19 | C[C@@H]1[C@H](c2cn[nH]c2)NCCN1c1ccnc(-c2cnc3ccc(C(F)(F)F)cn23)n1 [I-537, 4-[(2R,3 S)-2-methyl-3-(1H-pyrazol-4-yl)piperazin-1-yl]-2-[6-(trifluoromethyl)imidazo[1,2-a]pyridin-3-yl]pyrimidine] | < 500 | – | < 10
20 | CS(=O)(=O)NC[C@@H]1CN(c2ccnc(-c3cnc4ccc(C(F)F)cn34)n2)CCO1 [I-13, N-[[(2S)-4-[2-[6-(Difluoromethyl)imidazo[1,2-a]pyridin-3-yl]pyrimidin-4-yl]morpholin-2-yl]methyl]methanesulfonamide] | 500 to 5000 | < 10 | –
21 | C[C@@H]1CN(c2nccc(-c3cnc4cc(F)c(Cl)cn34)n2)C[C@@H](c2cn[nH]c2)O1 [I-274, (2R,6R)-4-(4-(6-chloro-7-fluoroimidazo[1,2-a]pyridin-3-yl)pyrimidin-2-yl)-2-methyl-6-(1H-pyrazol-4-yl)morpholine] | 500 to 5000 | – | 10 to 100
22 | Clc1ccc2ncc(-c3ncnc(N4CCOC(c5cn[nH]c5)C4)n3)n2c1 (stereo not shown) [I-22, 4-[4-(6-Chloroimidazo[1,2-a]pyridin-3-yl)-1,3,5-triazin-2-yl]-2-(1H-pyrazol-4-yl)morpholine] | < 500 | < 10 | –
23 | Cc1noc([C@H]2CN(c3ccnc(-c4cnc5ccc(Cl)cn45)n3)C[C@@H](C)O2)n1 [I-63] | < 500 | < 10 | –
24 | CC1CN(c2nccc(-c3cnc4ccc(Cl)cn34)n2)C(C)C(c2cn[nH]c2)N1 (stereo not shown) [I-35, 6-Chloro-3-[4-[2,5-dimethyl-3-(1H-pyrazol-4-yl)piperazin-1-yl]pyrimidin-2-yl]imidazo[12-a]pyridine] | 500 to 5000 | 10 to 100 | –
25 | NC(=O)[C@H]1CN(c2ccnc(-c3cnc4ccc(Cl)cn34)n2)CCN1C1CC1 [I-349, (R)-4-(2-(6-chloroimidazo[1,2-a]pyridin-3-yl)pyrimidin-4-yl)-1-cyclopropylpiperazine-2-carboxamide] | 500 to 5000 | – | 10 to 100
26 | Cc1[nH]ncc1[C@H]1CN(c2nccc(-c3cnc4ccc(C(F)(F)F)cn34)n2)C[C@@H](C)O1 (relative stereo) [I-115, cis-2-Methyl-6-(3-methyl-1H-pyrazol-4-yl)-4-{4-[6-(trifluoromethyl)imidazo[1,2-a]pyridin-3-yl]pyrimidin-2-yl}morpholine] | < 500 | – | –
